Reference: PMC6934184, “Selective DNA-PKcs inhibition extends the therapeutic index of localized radiotherapy and chemotherapy” (The Journal of Clinical Investigation, 2019)

Molecular target: T1, PIK3CA/PIK3R1 (p110α/p85α) (Homo sapiens, UniProt P42336)
T1 construct: purchased Thermo Fisher Scientific (Life Technologies) SelectScreen
Assay: SelectScreen Adapta
Type: biochemical
Procedure, shortened: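 NU5455 was profiled across the SelectScreen Broad panel of kinase activity and binding assays. Z'LYTE reactions such as CSF1R ran at apparent Km ATP, while the Adapta CAMK1 assay used ATP listed as 10. Values are given as percent.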

T1 sequence (P42336 whole entry): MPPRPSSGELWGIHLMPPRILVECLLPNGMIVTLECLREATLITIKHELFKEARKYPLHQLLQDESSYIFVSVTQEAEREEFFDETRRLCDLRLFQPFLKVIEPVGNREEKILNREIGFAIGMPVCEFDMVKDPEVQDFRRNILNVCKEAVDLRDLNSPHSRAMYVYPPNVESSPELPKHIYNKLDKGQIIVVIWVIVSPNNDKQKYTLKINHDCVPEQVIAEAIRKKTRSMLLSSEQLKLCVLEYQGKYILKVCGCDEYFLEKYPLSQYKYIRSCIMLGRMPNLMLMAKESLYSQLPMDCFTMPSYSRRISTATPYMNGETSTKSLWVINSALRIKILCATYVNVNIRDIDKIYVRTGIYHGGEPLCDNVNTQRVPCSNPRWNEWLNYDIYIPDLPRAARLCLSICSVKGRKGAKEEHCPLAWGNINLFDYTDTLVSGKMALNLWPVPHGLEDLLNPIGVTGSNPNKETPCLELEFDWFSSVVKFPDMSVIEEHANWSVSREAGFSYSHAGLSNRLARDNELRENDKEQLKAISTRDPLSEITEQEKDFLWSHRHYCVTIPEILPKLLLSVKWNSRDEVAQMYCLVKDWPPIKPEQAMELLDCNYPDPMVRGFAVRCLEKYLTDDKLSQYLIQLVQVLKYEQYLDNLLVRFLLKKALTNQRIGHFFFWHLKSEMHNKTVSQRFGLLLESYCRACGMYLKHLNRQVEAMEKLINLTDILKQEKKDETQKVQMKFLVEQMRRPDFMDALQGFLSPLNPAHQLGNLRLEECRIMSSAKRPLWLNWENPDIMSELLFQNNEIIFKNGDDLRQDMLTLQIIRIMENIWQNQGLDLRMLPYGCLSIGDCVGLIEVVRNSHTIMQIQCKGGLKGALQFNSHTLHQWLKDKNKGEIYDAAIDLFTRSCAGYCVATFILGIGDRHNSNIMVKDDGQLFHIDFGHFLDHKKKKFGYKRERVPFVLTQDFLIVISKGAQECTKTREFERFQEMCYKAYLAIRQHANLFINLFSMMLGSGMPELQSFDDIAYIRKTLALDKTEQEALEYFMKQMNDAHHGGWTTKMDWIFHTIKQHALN
T1 sequence (P27986 whole entry partner): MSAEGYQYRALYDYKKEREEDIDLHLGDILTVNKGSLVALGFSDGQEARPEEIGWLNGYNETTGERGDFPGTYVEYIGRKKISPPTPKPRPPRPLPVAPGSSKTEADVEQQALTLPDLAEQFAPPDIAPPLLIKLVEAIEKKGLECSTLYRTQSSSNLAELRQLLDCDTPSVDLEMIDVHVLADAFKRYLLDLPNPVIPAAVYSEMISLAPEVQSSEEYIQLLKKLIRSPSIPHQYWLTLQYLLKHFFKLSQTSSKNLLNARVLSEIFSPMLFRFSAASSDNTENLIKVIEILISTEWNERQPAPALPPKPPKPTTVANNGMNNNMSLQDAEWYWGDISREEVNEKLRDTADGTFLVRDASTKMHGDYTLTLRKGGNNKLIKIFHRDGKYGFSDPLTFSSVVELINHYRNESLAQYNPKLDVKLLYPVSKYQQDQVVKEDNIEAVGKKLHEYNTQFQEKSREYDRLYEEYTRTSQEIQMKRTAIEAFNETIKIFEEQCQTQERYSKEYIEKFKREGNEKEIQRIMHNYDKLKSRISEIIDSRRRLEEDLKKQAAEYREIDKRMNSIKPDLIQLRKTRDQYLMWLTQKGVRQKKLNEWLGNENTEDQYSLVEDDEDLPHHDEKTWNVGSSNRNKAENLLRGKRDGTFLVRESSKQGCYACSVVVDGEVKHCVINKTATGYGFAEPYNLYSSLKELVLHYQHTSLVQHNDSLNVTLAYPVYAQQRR

In the case of `CN(C(=O)CN1CCOCC1)c1ccc2sc3c(-c4cccc5c(=O)cc(N6CC7CCC(C6)O7)oc45)cccc3c2c1` [NU5455], the inhibition at 1 µM is reported as 4.2%.
